In patent publication US10004732B2 (Novartis AG, priority 2014, dated 2018):
Counter-ions that a name gives are not always drawn.

How the values were obtained:
PI 3-kinase alpha = PI 3-kinase alpha (Homo sapiens, UniProt P42336); assay: Kinase Glo Luminescent Kinase Assay (Kglo), assay A; type: biochemical; details: read-out: Assay A PI3Kα IC50
Experimental: Kinase Glo Luminescent Kinase Assay (Kglo) for Pb 3-Kinase Alpha (A), Pb 3-Kinase Beta (B), Vps34 (C), Pb 4-Kinase Beta (D)
The Kinase Glo Luminescent Kinase Assay (Promega, Madison/Wis., USA) is a homogeneous HTS method of measuring kinase activity by quantifying the amount of ATP remaining in solution following a kinase reaction.
L-α-phosphatidylinositol (PI), provided as 10 mg/ml solution in methanol, was transferred into a glass tube and dried under a nitrogen beam. It was then resuspended in 3% OctylGlucoside (1-0-n-octyl-beta-D-glucopyranoside) by vortexing and stored at 4° C. 5 μL of a mix of PI/OctylGlucoside with the PI 3-kinase alpha and PI 3-kinase beta subtypes, or Vps34 or PI 4-kinase beta were added. Kinase reactions were started by the addition of 5 μl of an ATP-mix containing in a final volume 10 μL 10 mM TRIS-HCl pH 7.5, 3 mM MgCl2, 50 mM NaCl, 0.05% CHAPS, 1 mM DTT and 1 μM ATP at room temperature.
All fits were performed with the program XLfit4 (ID Business Solutions, Guildford, UK).

PI 3-kinase beta = PI 3-kinase beta (Homo sapiens, UniProt P42338); assay: Kinase Glo Luminescent Kinase Assay (Kglo), assay B; type: biochemical; details: read-out: Assay B PI3Kβ IC50
Vps34 = Vps34 (Homo sapiens, UniProt Q8NEB9); assay: Kinase Glo Luminescent Kinase Assay (Kglo), assay C; type: biochemical; details: read-out: Assay C VPS34 IC50
PI 4-kinase beta = PI 4-kinase beta (Homo sapiens, UniProt Q9UBF8); assay: Kinase Glo Luminescent Kinase Assay (Kglo), assay D; type: biochemical; details: read-out: Assay D PI4Kβ IC50
PI 3-kinase gamma = PI 3-kinase gamma (Homo sapiens, UniProt P48736); assay: TR-FRET Adapta assay, assay E; type: biochemical; details: read-out: Assay E PI3Kγ IC50
mTOR = mTOR (Homo sapiens, UniProt P42345); assay: Lanthascreen kinase binding assay, assay G; details: read-out: Assay G mTOR IC50
Experimental: Lanthascreen™ Kinase Binding Assay for mTOR (G)
Binding of an inhibitor to the kinase competes for binding with the tracer, resulting in a loss of FRET.
50 nL of compound dilutions were dispensed onto white 384-well small volume polystyrene plate.

PI 3-kinase delta = PI 3-kinase delta (Homo sapiens, UniProt O00329); assay: TR-FRET Adapta assay, assay F; details: read-out: Assay F PI3Kδ IC50
[1] = Microsomal clearance assay (M)
Experimental: The experiments were performed in 96-well glass plates at 37° C. on an automated Tecan EVO platform. Test compounds at a concentration of 10 mM in pure DMSO were diluted 1:1000 in water to 10 μM. […] Reactions were initiated by the addition of 150 μL of a cofactor solution containing 2 mM NADPH.

[2] = intrinsic clearance in rat liver microsomes
[3] = rat liver microsomes, intrinsic clearance

PI 3-kinase alpha, sequence (P42336 whole entry): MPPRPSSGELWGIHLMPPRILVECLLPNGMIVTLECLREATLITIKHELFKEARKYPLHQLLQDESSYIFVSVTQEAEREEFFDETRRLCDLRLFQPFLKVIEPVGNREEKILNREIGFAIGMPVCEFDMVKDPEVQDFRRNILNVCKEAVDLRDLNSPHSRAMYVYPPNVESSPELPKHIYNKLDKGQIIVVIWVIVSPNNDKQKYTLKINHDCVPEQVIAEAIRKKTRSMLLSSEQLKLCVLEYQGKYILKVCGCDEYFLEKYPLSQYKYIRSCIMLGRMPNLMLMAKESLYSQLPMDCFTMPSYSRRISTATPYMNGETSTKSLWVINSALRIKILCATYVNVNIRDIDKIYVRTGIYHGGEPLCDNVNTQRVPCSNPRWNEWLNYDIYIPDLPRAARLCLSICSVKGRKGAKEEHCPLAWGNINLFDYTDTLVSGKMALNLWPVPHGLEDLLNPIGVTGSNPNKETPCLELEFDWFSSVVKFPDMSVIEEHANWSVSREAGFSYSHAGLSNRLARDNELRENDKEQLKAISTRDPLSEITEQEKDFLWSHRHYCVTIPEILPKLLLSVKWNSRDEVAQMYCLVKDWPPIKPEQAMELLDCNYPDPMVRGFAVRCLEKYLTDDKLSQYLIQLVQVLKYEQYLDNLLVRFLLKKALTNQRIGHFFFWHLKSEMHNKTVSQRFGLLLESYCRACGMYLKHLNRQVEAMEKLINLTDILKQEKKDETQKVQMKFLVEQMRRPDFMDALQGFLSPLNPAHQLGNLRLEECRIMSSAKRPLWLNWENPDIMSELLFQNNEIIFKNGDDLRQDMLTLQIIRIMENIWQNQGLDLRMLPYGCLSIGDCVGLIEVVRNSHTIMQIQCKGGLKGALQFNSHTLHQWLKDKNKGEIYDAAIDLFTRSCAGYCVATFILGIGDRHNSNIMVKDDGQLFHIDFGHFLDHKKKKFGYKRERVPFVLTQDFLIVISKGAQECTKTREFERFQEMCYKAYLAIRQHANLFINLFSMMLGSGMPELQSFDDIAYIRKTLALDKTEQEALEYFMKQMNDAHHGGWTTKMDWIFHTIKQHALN
Vps34, sequence (Q8NEB9 whole entry, species assumed): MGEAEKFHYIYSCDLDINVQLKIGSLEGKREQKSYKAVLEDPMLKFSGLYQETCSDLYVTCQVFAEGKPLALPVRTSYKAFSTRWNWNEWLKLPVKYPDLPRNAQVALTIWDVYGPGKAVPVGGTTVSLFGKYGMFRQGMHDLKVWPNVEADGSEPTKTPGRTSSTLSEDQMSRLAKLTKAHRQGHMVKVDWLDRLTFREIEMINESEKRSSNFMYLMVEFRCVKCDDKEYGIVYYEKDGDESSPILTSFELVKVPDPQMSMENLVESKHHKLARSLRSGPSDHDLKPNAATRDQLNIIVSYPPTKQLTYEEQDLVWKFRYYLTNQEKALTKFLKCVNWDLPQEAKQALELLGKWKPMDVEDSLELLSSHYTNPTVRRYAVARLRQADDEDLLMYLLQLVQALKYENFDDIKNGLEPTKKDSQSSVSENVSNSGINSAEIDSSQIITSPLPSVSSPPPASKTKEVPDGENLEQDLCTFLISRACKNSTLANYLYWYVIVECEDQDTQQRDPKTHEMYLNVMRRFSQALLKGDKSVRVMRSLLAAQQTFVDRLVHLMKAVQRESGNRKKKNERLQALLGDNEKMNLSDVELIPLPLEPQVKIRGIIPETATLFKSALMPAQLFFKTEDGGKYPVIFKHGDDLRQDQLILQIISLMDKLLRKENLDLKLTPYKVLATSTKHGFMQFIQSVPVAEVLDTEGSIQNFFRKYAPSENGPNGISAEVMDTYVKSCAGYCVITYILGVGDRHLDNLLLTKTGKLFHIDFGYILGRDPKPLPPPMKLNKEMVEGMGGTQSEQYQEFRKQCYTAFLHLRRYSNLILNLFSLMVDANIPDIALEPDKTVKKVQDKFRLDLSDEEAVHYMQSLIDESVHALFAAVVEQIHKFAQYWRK
PI 3-kinase gamma, sequence (P48736 whole entry): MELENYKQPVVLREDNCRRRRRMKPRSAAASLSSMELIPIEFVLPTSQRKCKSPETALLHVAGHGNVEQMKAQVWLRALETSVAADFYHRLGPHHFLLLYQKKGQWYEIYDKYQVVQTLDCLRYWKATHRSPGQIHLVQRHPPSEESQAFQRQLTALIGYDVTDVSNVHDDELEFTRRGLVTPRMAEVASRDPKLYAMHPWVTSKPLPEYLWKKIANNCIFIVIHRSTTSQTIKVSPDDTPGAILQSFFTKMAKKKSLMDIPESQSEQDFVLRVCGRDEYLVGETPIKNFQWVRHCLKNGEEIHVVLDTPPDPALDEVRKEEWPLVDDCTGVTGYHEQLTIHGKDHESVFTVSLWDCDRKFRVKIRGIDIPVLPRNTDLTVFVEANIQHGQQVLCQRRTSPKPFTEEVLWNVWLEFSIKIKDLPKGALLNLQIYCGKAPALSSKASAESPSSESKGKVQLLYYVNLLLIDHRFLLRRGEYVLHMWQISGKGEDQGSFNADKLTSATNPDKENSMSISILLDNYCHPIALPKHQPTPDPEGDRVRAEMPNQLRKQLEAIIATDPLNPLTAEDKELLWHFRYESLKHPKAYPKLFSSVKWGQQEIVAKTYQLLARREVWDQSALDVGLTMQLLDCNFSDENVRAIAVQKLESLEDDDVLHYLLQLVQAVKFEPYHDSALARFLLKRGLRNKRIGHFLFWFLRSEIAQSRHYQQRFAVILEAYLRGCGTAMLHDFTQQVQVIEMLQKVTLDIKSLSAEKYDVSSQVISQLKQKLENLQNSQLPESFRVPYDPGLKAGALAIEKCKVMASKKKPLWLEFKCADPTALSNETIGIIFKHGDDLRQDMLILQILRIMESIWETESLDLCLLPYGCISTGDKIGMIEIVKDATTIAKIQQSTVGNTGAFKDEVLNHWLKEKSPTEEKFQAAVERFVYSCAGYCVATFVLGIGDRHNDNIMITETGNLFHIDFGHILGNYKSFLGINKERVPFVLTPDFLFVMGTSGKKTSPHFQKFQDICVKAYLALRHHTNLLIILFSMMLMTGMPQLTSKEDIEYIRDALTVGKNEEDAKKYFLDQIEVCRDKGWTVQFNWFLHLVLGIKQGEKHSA
PI 4-kinase beta, sequence (Q9UBF8 whole entry): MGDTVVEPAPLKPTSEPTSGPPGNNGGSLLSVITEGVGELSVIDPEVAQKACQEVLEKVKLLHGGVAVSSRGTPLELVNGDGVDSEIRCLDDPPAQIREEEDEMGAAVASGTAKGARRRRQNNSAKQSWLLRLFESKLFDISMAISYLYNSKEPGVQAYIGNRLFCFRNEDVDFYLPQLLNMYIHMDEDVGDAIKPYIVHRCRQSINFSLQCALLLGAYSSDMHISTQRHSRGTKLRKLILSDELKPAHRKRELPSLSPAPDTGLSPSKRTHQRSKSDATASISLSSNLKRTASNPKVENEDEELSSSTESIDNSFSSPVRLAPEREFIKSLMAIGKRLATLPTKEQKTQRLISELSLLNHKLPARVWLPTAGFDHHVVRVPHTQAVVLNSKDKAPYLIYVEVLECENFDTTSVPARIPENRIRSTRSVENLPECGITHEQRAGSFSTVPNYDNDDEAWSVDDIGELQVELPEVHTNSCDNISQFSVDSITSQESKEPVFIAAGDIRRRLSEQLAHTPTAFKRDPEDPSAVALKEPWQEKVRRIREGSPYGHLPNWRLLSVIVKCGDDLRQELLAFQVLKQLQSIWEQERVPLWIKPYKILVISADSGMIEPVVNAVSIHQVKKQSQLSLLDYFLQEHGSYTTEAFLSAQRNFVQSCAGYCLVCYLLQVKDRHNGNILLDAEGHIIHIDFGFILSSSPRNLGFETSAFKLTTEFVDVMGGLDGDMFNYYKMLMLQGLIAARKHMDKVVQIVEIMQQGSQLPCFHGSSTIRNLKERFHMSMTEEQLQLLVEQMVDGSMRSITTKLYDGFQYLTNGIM
PI 3-kinase beta, sequence (P42338 whole entry): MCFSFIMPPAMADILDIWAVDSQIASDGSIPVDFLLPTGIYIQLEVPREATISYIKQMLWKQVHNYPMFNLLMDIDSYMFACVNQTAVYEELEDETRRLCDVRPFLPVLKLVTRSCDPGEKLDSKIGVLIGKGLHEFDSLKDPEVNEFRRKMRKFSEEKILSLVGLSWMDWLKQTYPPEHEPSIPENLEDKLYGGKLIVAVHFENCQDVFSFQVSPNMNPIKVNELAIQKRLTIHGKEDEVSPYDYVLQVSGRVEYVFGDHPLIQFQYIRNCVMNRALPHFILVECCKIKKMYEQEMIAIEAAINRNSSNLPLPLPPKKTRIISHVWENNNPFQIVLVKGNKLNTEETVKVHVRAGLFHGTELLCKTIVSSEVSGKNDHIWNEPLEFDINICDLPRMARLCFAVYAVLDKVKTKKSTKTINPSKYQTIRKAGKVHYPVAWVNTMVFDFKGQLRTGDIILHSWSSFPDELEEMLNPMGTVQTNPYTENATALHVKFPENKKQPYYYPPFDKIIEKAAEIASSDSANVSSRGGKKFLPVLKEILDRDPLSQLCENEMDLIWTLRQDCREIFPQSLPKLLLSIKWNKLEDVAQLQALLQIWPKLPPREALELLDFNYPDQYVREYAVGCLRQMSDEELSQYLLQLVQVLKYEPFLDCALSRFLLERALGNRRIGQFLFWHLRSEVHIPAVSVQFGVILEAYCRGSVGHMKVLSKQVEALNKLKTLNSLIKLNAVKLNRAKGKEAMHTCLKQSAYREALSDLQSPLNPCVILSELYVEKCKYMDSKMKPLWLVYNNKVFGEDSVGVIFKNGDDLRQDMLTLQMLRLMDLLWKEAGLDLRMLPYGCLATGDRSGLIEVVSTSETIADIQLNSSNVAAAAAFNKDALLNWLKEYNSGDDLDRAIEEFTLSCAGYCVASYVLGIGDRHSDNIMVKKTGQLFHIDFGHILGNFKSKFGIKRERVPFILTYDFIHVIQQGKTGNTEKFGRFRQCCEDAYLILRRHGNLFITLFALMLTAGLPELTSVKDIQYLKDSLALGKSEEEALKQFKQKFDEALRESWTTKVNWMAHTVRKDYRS
PI 3-kinase beta, sequence (P27986 461-568 partner): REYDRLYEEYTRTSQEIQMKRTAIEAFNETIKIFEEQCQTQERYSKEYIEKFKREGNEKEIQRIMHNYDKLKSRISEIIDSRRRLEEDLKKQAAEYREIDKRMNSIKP

| SMILES | IC50 (PI 3-kinase alpha) | IC50 (PI 3-kinase beta) | IC50 (Vps34) | IC50 (PI 4-kinase beta) | IC50 (PI 3-kinase gamma) | IC50 (mTOR) | IC50 (PI 3-kinase delta) | Assay M RLM CI(int) [1, 2] | Assay M RLM CI(int) [1, 3] |
| --- | --- | --- | --- | --- | --- | --- | --- | --- | --- |
| Cc1nnc(-c2nc(-c3cc(S(=O)(=O)NCC(C)(C)O)ccc3C)cnc2N)o1 [Example 90, 3-(5-Amino-6-(5-methyl-1,3,4-oxadiazol-2-yl)pyrazin-2-yl)-N-(2-hydroxy-2-methylpropyl)-4-methylbenzenesulfonamide] | 2.1 µM | 0.94 µM | > 10 µM | > 10 µM | 0.078 µM | > 10 µM | 2 µM | 19 µL/min/mg |  |
| Cc1cc(-c2nc(-c3cc(S(=O)(=O)NCCN4CCOCC4)ccc3C)cnc2N)ccn1 [Example 129.28, 3-(5-amino-6-(2-methylpyridin-4-yl)pyrazin-2-yl)-4-methyl-N-(2-morpholinoethyl)benzenesulfonamide] | 0.26 µM | 5.3 µM | > 9.1 µM | > 9.1 µM | 0.14 µM | > 9.1 µM | 1.1 µM | 159 µL/min/mg |  |
| Cc1ncc(-c2nc(-c3cc(S(=O)(=O)NCC4CCOCC4)ccc3C)cnc2N)s1 [Example 45.2, 3-(5-Amino-6-(2-methylthiazol-5-yl)pyrazin-2-yl)-4-methyl-N-((tetrahydro-2H-pyran-4-yl)methyl)benzenesulfonamide] | 0.04 µM | 0.37 µM | 6 µM | 5.8 µM | 0.018 µM |  | 0.05 µM | 194 µL/min/mg |  |
| Cc1cc(-c2nc(-c3cc(S(=O)(=O)NC[C@@H](C)O)ccc3C)cnc2N)ccn1 [Example 129, (R)-3-(5-Amino-6-(2-methylpyridin-4-yl)pyrazin-2-yl)-N-(2-hydroxypropyl)-4-methyl benzene sulfonamide trifluoroacetic acid salt] | 0.13 µM | 7.3 µM | > 9.1 µM | > 9.1 µM | 0.024 µM | > 9.1 µM | 0.55 µM | 28 µL/min/mg |  |
| Cc1cc(-c2nc(-c3cc(S(=O)(=O)NCC(C)(C)CN(C)C)ccc3C)cnc2N)ccn1 [Example 129.24, 3-(5-amino-6-(2-methylpyridin-4-yl)pyrazin-2-yl)-N-(3-(dimethylamino)-2,2-dimethylpropyl)-4-methylbenzenesulfonamide] | > 9.1 µM | > 9.1 µM | > 9.1 µM | > 9.1 µM | 0.2 µM | > 9.1 µM | 6.6 µM | 755 µL/min/mg |  |
| Cc1nc(C)c(-c2nc(-c3cc(S(=O)(=O)NCC(C)(C)O)ccc3C)cnc2N)s1 [Example 46.1, 3-(5-Amino-6-(2,4-dimethylthiazol-5-yl)pyrazin-2-yl)-N-(2-hydroxy-2-methylpropyl)-4-methylbenzenesulfonamide] | 1.4 µM | > 10 µM | > 10 µM | > 10 µM | 0.21 µM | > 10 µM | 2.6 µM | 16 µL/min/mg |  |
| Cc1ccc(S(=O)(=O)NCC(C)(C)O)cc1-c1cnc(N)c(-c2noc(C3CC3)n2)n1 [Example 91, 3-(5-Amino-6-(5-cyclopropyl-1,2,4-oxadiazol-3-yl)pyrazin-2-yl)-N-(2-hydroxy-2-methylpropyl)-4-methylbenzenesulfonamide] | 2.35 µM | 2.55 µM | > 9.55 µM | > 9.55 µM | 0.27 µM | > 9.55 µM | 2.1 µM | 46 µL/min/mg |  |
| Cc1ncc(-c2nc(-c3cc(S(=O)(=O)NCC(F)(F)F)ccc3C)cnc2N)s1 [Example 45.5, 3-(5-Amino-6-(2-methylthiazol-5-yl)pyrazin-2-yl)-4-methyl-N-(2,2,2-trifluoroethyl)benzenesulfonamide] |  |  | 0.65 µM | 0.78 µM |  |  |  | 147 µL/min/mg |  |
| Cc1ccc(S(=O)(=O)N2CCC(F)CC2)cc1-c1cnc(N)c(-n2cncn2)n1 [Example 127.34] | 1.5 µM | 5.3 µM | > 10 µM | 3 µM | 0.18 µM | > 10 µM | 3.2 µM | 641 µL/min/mg |  |
| Cc1cn(-c2nc(-c3cc(S(=O)(=O)NCC(C)(C)O)ccc3C)cnc2N)c(C)n1 [Example 50, 3-(5-Amino-6-(2,4-dimethyl-1H-imidazol-1-yl)pyrazin-2-yl)-N-(2-hydroxy-2-methylpropyl)-4-methylbenzenesulfonamide] | 2.5 µM | 2.8 µM | > 10 µM | > 10 µM | 0.85 µM | > 10 µM | > 10 µM | 28 µL/min/mg |  |
| Cc1ccc(S(=O)(=O)N2CC3(CC(O)C3)C2)cc1-c1cnc(N)c(-n2cncn2)n1 [Example 101, 2-(3-(5-Amino-6-(1H-1,2,4-triazol-1-yl)pyrazin-2-yl)-4-methylphenylsulfonyl)-2-azaspiro[3.3]heptan-6-ol] | 2 µM | 1.7 µM | > 10 µM | 2.4 µM | 0.21 µM | > 10 µM | 3 µM | 39 µL/min/mg |  |
| Cc1cc(-c2nc(-c3cc(S(=O)(=O)N4CCC(N)CC4)ccc3C)cnc2N)ccn1 [Example 129.41, 5-(5-(4-aminopiperidin-1-ylsulfonyl)-2-methylphenyl)-3-(2-methylpyridin-4-yl)pyrazin-2-amine] | 1.6 µM | 4 µM | > 9.1 µM | > 9.1 µM | 0.32 µM | > 9.1 µM | 2.3 µM | 13 µL/min/mg |  |
| Cc1ncc(-c2nc(-c3cc(S(=O)(=O)NCC4(C)COC4)ccc3C)cnc2N)s1 [Example 120, 3-(5-Amino-6-(2-methylthiazol-5-yl)pyrazin-2-yl)-4-methyl-N-((3-methyloxetan-3-yl)methyl)benzenesulfonamide] | 0.02 µM | 1 µM | 1.3 µM | 2.5 µM | 0.004 µM |  | 0.06 µM | 95 µL/min/mg |  |
| Cc1ccc(S(=O)(=O)N2CCC(F)(F)CC2)cc1-c1cnc(N)c(-n2cncn2)n1 [Example 127.33] | 0.74 µM | > 10 µM | > 10 µM | > 10 µM | 0.17 µM | > 10 µM | 8.7 µM | 560 µL/min/mg |  |
| Cc1ccc(S(=O)(=O)NC2CCC(CO)CC2)cc1-c1cnc(N)c(-n2cncn2)n1 (centres unmarked) [Example 127.6] | 0.39 µM | 2.2 µM | > 10 µM | > 10 µM | 0.16 µM | > 10 µM | 1.5 µM | 20 µL/min/mg |  |
| Cc1ccc(S(=O)(=O)N2CCOCC2)cc1-c1cnc(N)c(C(=O)c2cccnc2)n1 [(ix), reference compound] |  |  |  |  |  |  |  |  | 267 µL/min/mg |
| CC(C)(C)c1ccc(C(=O)c2cc(-c3cccc(S(=O)(=O)NC4CC4)c3)cnc2N)cc1 [(iii), reference compound] |  |  |  |  |  |  |  |  | 219 µL/min/mg |
| COCCNS(=O)(=O)c1cc(-c2cnc(N)c(C(=O)c3cccnc3)n2)ccc1Cl [(vi), reference compound] |  |  |  |  |  |  |  |  | 630 µL/min/mg |
